In brackets after ≈: the same amount, converted by molar mass. Where a name gives a salt, the structure may show the parent alone. Read-outs that look alike come from different tables or passages of the source.
Tests used:
[1] = system: KB3 (epitheloid lung cancer) cell lines; test: Cell growth inhibition (cytotoxicity), MTS assay, KB3 cell line; format: cell-based; details: for cytotoxic activity in words: structure-cytotoxicity discussion
Experimental: Cell growth inhibition was determined by the MTS assay; the number of viable cells were proportional to the extent of formazan production in the presence or absence of drugs. […]

[2] = system: bloodstream forms of T. brucei and T. congolense; test: Trypanocidal activity in vitro, Alamar Blue assay; format: cell-based, Trypanosoma brucei and T. congolense
From the text: Trypanosoma brucei and T. congolense are the causative agents of sleeping sickness in humans and nagana in cattle, respectively. The protozoan parasites live extracellularlyin blood and tissue fluids of mammals and are transmitted by the bite of infected tsetse flies (Glossina spp.). Here the trypanocidal activity against bloodstream forms of T. brucei and T. congolense of bis-8-hydroxy quinoline N-substituted benzylamines derivatives was investigated in vitro, according to methods described in. Steverding et al. (2006) Kinetoplastid Biology and Disease, 5(3): 1-5; Hongmance et al., (2007) Antimicrob. Agents Chemother. 51:1105-1106; and Zhao et al., (2005) Bio-org. Med. Chem.; 13: 3921-3926. Cells were seeded into 96-well tissue culture plates in 200 μl medium containing various concentrations of analogues dissolved in H2O. The controls contained the respective solvent alone. […] After 24 h (trypanosomes) or 43 h (HL-60) incubation, 20 μl of the colorimetric viability indicator Alamar Blue® was added to each well. The cells were incubated for a further 24 h (trypanosomes) or 5 h (HL-60) so that the total incubation time was 48 h. Then, the plates were read on a Dynatech MR5000ELISA reader (Denkendorf, Germany),using a test wavelength of 550 nm and a reference wave length of 630 nm. Each test was set up in duplicate and repeated three times. For comparison, the general cytotoxicity of the compounds was assayed with human myeloid leukaemia HL-60 cells. The anti-trypanosomal activities and the general cytotoxicities of the new analogues were evaluated using the Alamar Blue® assay.

[3] = system: U373 (human glioblastoma-astrocytoma); test: Growth inhibition, MTT colorimetric assay, U373; format: cell-based; details: Homo sapiens, U373 MG, 72 h; glioma; 3 days with drug; means of six values; unit inferred; read-out: IC50 U373
Experimental: (§1) Compounds that met the criteria for activity on KB3 cells were further tested for drug growth inhibitory activity in 5 carcinoma, 6 glioma and 3 melanoma cell lines, shown in Table 4. A549 (human lung adenocarcinoma epithelial), BxPC3 (pancreatic cancer), LoVo (colon cancer), MCF-7 (epithelial breast cancer), PC3 (human prostate cancer), Hs683 (human glioma), T98G (glioblastoma), U373 (human glioblastoma-astrocytoma), U138 MG (human glioma), epithelial-like), SKMEL28 (human melanoma), B16-F10 (mouse melanoma) and RhTP (rhabdomyosarcoma) cell lines were cultured in presence of the drugs for 3 days. The cytotoxic activity is expressed as (IC50). Inhibition of cell proliferation measured by the MTT colorimetric assay. The values reported in Table 4 are means of six distinct values. The standard errors are <5% as compared to the mean values.

LoVo (colon cancer) = test: Growth inhibition, MTT colorimetric assay, LoVo; format: cell-based; details: Homo sapiens, LoVo, 72 h; carcinoma; 3 days with drug; means of six values; unit inferred; read-out: IC50 LoVo
Experimental: as §1, with “A549” for “Compounds that met the criteria for activity on KB3 cells were further tested for drug growth inhibitory activity in 5 carcinoma, 6 glioma and 3 melanoma cell lines, shown in Table 4. A549”, “values.” for “values. The standard errors are <5% as compared to the mean values.”

T98G (glioblastoma) = test: cells; format: cell-based; details: Homo sapiens, T98G, 72 h; glioma; 3 days with drug; means of six values; unit inferred; read-out: IC50 T98G
Experimental: as §1, with “A549” for “Compounds that met the criteria for activity on KB3 cells were further tested for drug growth inhibitory activity in 5 carcinoma, 6 glioma and 3 melanoma cell lines, shown in Table 4. A549”, “values.” for “values. The standard errors are <5% as compared to the mean values.”

[4] = system: BxPC3 (pancreatic cancer); test: Growth inhibition, MTT colorimetric assay, BxPC3; format: cell-based, human; details: Homo sapiens, BXPC-3, 72 h; carcinoma; 3 days with drug; means of six values; unit inferred; read-out: IC50 BxPC3
Experimental: Cells are cultured at 37° C. in Falcon culture dishes, incubated at 5% CO2 in a suitable culture medium available from Invitrogen Corp. Anti-proliferative activity is determined by an MTT assay (bromide of (3-[4,5-dimethylthiazolium-yl]diphenyltetrazolium)). According to one standard protocol, absorbance is measured at 570 nm (see Dumont et al. (2007) Neoplasia 9: 766-776.
as §1, with “A549” for “Compounds that met the criteria for activity on KB3 cells were further tested for drug growth inhibitory activity in 5 carcinoma, 6 glioma and 3 melanoma cell lines, shown in Table 4. A549”, “values.” for “values. The standard errors are <5% as compared to the mean values.”

U138 MG (human glioma) = test: Growth inhibition, MTT colorimetric assay, U138; format: cell-based; details: Homo sapiens, U138-MG, 72 h; glioma; 3 days with drug; means of six values; unit inferred; read-out: IC50 U138
Experimental: as §1

RhTP (rhabdomyosarcoma) = test: Growth inhibition, MTT colorimetric assay, RhTp; format: cell-based; details: 72 h; 3 days with drug; means of six values; unit inferred; read-out: IC50 RhTp
Experimental: as §1

Hs683 (human glioma) = test: Growth inhibition, MTT colorimetric assay, HS683; format: cell-based; details: Homo sapiens, Hs 683, 72 h; glioma; 3 days with drug; means of six values; unit inferred; read-out: IC50 HS683
Experimental: as §1, with “A549” for “Compounds that met the criteria for activity on KB3 cells were further tested for drug growth inhibitory activity in 5 carcinoma, 6 glioma and 3 melanoma cell lines, shown in Table 4. A549”, “values.” for “values. The standard errors are <5% as compared to the mean values.”

[5] = system: A549 (human lung adenocarcinoma epithelial); test: Growth inhibition, MTT colorimetric assay, A549; format: cell-based; details: Homo sapiens, A549, 72 h; carcinoma; 3 days with drug; means of six values; unit inferred; read-out: IC50 A549
Experimental: as §1, with “A549” for “Compounds that met the criteria for activity on KB3 cells were further tested for drug growth inhibitory activity in 5 carcinoma, 6 glioma and 3 melanoma cell lines, shown in Table 4. A549”, “values.” for “values. The standard errors are <5% as compared to the mean values.”

GL19 = test: Growth inhibition, MTT colorimetric assay, GL19; format: cell-based; details: GL19, 72 h; 3 days with drug; means of six values; unit inferred; read-out: IC50 GL19
Experimental: as §1

SKMEL28 (human melanoma) = test: Growth inhibition, MTT colorimetric assay, SKMEL-28; format: cell-based; details: Homo sapiens, SK-MEL-28, 72 h; melanoma; 3 days with drug; means of six values; unit inferred; read-out: IC50 SKMEL-28
Experimental: as §1

B16-F10 (mouse melanoma) = test: Growth inhibition, MTT colorimetric assay, B16F10; format: cell-based; details: Mus musculus, B16-F10, 72 h; melanoma; 3 days with drug; means of six values; unit inferred; read-out: IC50 B16F10
Experimental: as §1

Host = test: Growth inhibition, MTT colorimetric assay, Host; format: cell-based; details: 72 h; 3 days with drug; means of six values; unit inferred; read-out: IC50 Host
Experimental: as §1

[6] = system: MCF-7 (epithelial breast cancer); test: Growth inhibition, MTT colorimetric assay, MCF7; format: cell-based; details: Homo sapiens, MCF7, 72 h; carcinoma; 3 days with drug; means of six values; unit inferred; read-out: IC50 MCF7
Experimental: as §1, with “A549” for “Compounds that met the criteria for activity on KB3 cells were further tested for drug growth inhibitory activity in 5 carcinoma, 6 glioma and 3 melanoma cell lines, shown in Table 4. A549”, “values.” for “values. The standard errors are <5% as compared to the mean values.”

[7] = system: PC3 (human prostate cancer); test: Growth inhibition, MTT colorimetric assay, PC3; format: cell-based; details: Homo sapiens, 72 h; carcinoma; 3 days with drug; means of six values; unit inferred; read-out: IC50 PC3
Experimental: as §1

KaKa = test: Growth inhibition, MTT colorimetric assay, KaKa; format: cell-based; details: 72 h; 3 days with drug; means of six values; unit inferred; read-out: IC50 KaKa
Experimental: as §1

[8] = KB3, Table 3B, MTS assay, triplicate, read-out: KB3 IC50
[9] = Table 3A, MTS assay, triplicate, read-out: KB3 IC50
[10] = 50% growth inhibition, 48 h total incubation, read-out: GI50
[11] = lowest concentration at which all cells were killed, 48 h total incubation, read-out: MIC
[12] = KB3, Table 3A, MTS assay, triplicate, read-out: KB3 IC50

Compound: Oc1ccc(CN(Cc2ccccc2)Cc2ccccc2)c2cccnc12 [BPM19,230, 5-((dibenzylamino)methyl)quinolin-8-ol]
- IC50 [1, 8]: 1 µM

Compound: Oc1ccc(CNCc2ccc(C(F)(F)F)cc2)c2cccnc12 [BPM19,191, 5-((4-(trifluoromethyl)benzylamino)methyl)quinolin-8-ol]
- IC50 [1, 8]: 10 µM

Compound: 5,5′-(2-(pyridin-2-yl)ethylazanediyl)bis(methylene)diquinolin-8-ol) [BPM19,193]
- IC50 [1, 9]: > 10 µM

Compound: Oc1ccc(CNCc2ccccc2)c2cccnc12 [BPM18,726, 5-((benzylamino)methyl)quinolin-8-ol dihydrochloride]
- IC50 [1, 8]: > 1 µM

Compound: Oc1ccc(CN(Cc2ccc(OC(F)(F)F)cc2)Cc2ccc(O)c3ncccc23)c2cccnc12 [BPM19,205, 5,5′-(4-(trifluoromethoxy)benzylazanediyl)bis(methylene)diquinolin-8-ol]
- GI50 [2, 10]: 0.32 ± 0.02 µM
- MIC [2, 11]: 1 µM (≈ 0.505 µg/mL)
- IC50 [1, 12]: 0.1 to 1 µM

Compound: Oc1ccc(CNCc2cccc(C(F)(F)F)c2)c2cccnc12 [BPM19,114, 5-((3-(trifluoromethyl)benzylamino)methyl)quinolin-8-ol]
- IC50 [1, 8]: 0.2 µM
- cytotoxic activity in words ([1]; KB3 cell line): significant cytotoxic activity

Compound: O=C(O)C1CCC(CN(Cc2ccc(O)c3ncccc23)Cc2ccc(O)c3ncccc23)CC1 (stereo not shown) [BPM19,225, 4-((bis((8-hydroxyquinolin-5-yl)methyl)amino)-methyl)cyclohexanecarboxylic acid]
- IC50 [3]: 3.73 µM
- IC50 (LoVo (colon cancer)): 0.422 µM
- IC50 (T98G (glioblastoma)): 9.76 µM
- IC50 [4]: 4.34 µM
- IC50 (U138 MG (human glioma)): > 10 µM
- IC50 (RhTP (rhabdomyosarcoma)): > 10 µM
- IC50 (Hs683 (human glioma)): 2.86 µM
- IC50 [5]: 0.661 µM
- IC50 (GL19): 7.6 µM
- IC50 (SKMEL28 (human melanoma)): > 10 µM
- IC50 (B16-F10 (mouse melanoma)): > 10 µM
- IC50 (Host): > 10 µM
- IC50 [6]: 9.46 µM
- IC50 [7]: 0.993 µM
- IC50 (KaKa): > 10 µM

Compound: Cc1ccc(C(=O)NCc2ccc(O)c3ncccc23)cc1 [BPM18,203, N-((8-hydroxyquinolin-5-yl)methyl)-4-methylbenzamide]
- IC50 [1, 8]: 1 µM
- CC50 ([1]; KB3 cell line): 1 µM
- cytotoxic activity in words ([1]; KB3 cell line): inactive or only weakly active

Compound: Oc1ccc(N(Cc2cccc3ccccc23)c2ccc(O)c3ncccc23)c2cccnc12 [BPM19,702, 5,5′-(naphthalen-1-ylmethylazanediyl)diquinolin-8-ol]
- GI50 [2, 10]: 0.29 µM
- MIC [2, 11]: 1 µM (≈ 0.444 µg/mL)

Compound: Cc1ccc(CNCc2ccc(O)c3ncccc23)cc1 [BPM19,167, 5-((4-methylbenzylamino)methyl)quinolin-8-ol dihydrochloride]
- GI50 ([2]; 48 h): 14.8 ± 2.59 µM
- MIC ([2]; 48 h): 100 µM

Compound: Oc1ccc(CN(Cc2ccc(O)c3ncccc23)CC2CCCO2)c2cccnc12 (stereo not shown) [BPM19,197, 5,5′-((tetrahydrofuran-2-yl)methylazanediyl)bis(methylene)diquinolin-8-ol]
- GI50 [2, 10]: 2.99 ± 0.05 µM
- MIC [2, 11]: 10 µM (≈ 4.15 µg/mL)
- IC50 [1, 12]: 10 µM

Compound: Cn1cccc1CN(Cc1ccc(O)c2ncccc12)Cc1ccc(O)c2ncccc12 [BPM19,216, 5,5′-((1-methyl-1H-pyrrol-2-yl)methylazanediyl)bis(methylene)diquinolin-8-ol]
- GI50 [2, 10]: 0.32 ± 0.01 µM
- MIC [2, 11]: 1 µM (≈ 0.425 µg/mL)

Compound: CC(=O)O[C@@]12CO[C@@H]1C[C@H](O)[C@@]1(C)C(=O)[C@H](O)C3=C(C)[C@@H](OC(=O)[C@H](O)[C@@H](NC(=O)OC(C)(C)C)c4ccccc4)C[C@@](O)([C@@H](OC(=O)c4ccccc4)[C@H]21)C3(C)C [docetaxel, reference compound]
- IC50 ([1]; compared with KB3 values, read-out: IC50 value of reference drug): 0.0001 µM

Compound: Cc1ccc2c(CN(Cc3ccc(C(F)(F)F)cc3)Cc3ccc(O)c4nc(C)ccc34)ccc(O)c2n1 [BPM19,876, 5,5′-(4-trifluoromethylbenzylazanediyl)bis(methylene)bis(2-methylquinolin-8-ol)]
- GI50 [2, 10]: 3.71 ± 0.24 µM
- MIC [2, 11]: 100 µM (≈ 51.8 µg/mL)

Compound: 5,5′-(2-(pyrrolidin-1-yl)ethylazanediyl)bis(methylene)diquinolin-8-ol) [BPM19,214]
- IC50 [1, 9]: 1 µM

Source: patent US20110251238A1, “PPAR AGONIST COMPOSITIONS AND METHODS OF USE” (BIOPHARMED, priority 2008, published 2011)
